The structures appear in SMILES notation.

The values below come from article PMC8910920 (International Journal of Molecular Sciences, 2022).

The test system of this experiment is CCI rats, heat hypersensitivity. Nature of the experiment: CCI model of neuropathic pain, heat sensitivity (Hargreaves test). It counts as in vivo, rat. How it is done:
The CCI model of neuropathic pain allowed the evaluation of the effect RGM8-51 on cold, heat and mechanical sensitivity, as assayed by the acetone test, the Hargreaves test, and the automatized von Frey test, respectively. RGM8-51 was applied either locally (i.pl.; 10 µg) in the affected paw or systemically (intraperitoneally, i.p., 10 and 30 mg/kg) and the effect evaluated before (Baseline) and after CCI surgery. The nocifensive response after administration of RGM8-51 was compared with that of vehicle, while non-operated animals and the uninjured (contralateral) hind paw in CCI animals were used as controls.
Adult male Sprague-Dawley rats (weighing 200–220 g/6–8 weeks old) were used in these experiments. All experimental procedures were conducted according to the animal welfare guidelines of the European Community (European Directive 2010/63/UE) to minimize animal suffering and were approved by Universidad Complutense de Madrid and Comunidad de Madrid ethical committees on animal experimentation (PROEX 207.8/21). […]
For behavioral testing, rats were placed in individual methacrylate boxes with a wire mesh floor, and after a period of 15 min acclimatization, the cold, heat and mechanical sensitivity of the ipsilateral and contralateral paws was determined. Cold sensitivity was assessed with the acetone test. In total, 100 µL acetone were locally applied to the plantar surface of the hind paw and the duration of the subsequent nocifensive response (licking, brushing, and flinching of the paw) was determined during 60 s. Acetone application and assessment were repeated 2 times with a 5 min interval and the sum of the two values was recorded. Heat sensitivity was determined with the Hargreaves test, which uses infrared light as a heat source, with a Hargreaves apparatus (Serie 8, Model 336, IITC Life Science, Woodland Hills, CA USA). The light beam was directed to the plantar surface of the hind paw and the time from the beginning of irradiation to the appearance of first paw withdrawal movement was measured (paw withdrawal latency). […]

Turning to `C[C@@H]1C(=O)N(C[C@H](Cc2ccccc2)N(Cc2ccccc2)Cc2ccccc2)[C@]1(Cc1ccccc1)C(=O)OC(C)(C)C` [RGM8-51, 4(S)-Benzyl-3S-methyl-4-(tert-butoxy)carbonyl-1-[(2′S-dibenzylamino-3′-phenyl)prop-1′-yl]-2-oxoazetidine], the “heat hypersensitivity in CCI rats” value is recorded as “effective in decreasing hypersensitivity to heat” (i.p. 10 and 30 mg/kg, dose-dependently); “did not influence the animal response to heat” (i.pl. 10 µg). Further, the “heat perception in non-operated animals (baseline) or uninjured hind paw” value (rat, in vivo) was “had no effect on heat perception”.
